According to patent publication US11672251B2, “Herbicidally active pyridyl-/pyrimidyl-pyrimidine derivatives” (Syngenta Participations AG, priority 2017, dated 2023):

Experiments:
Format in all cases: in vivo
[1] = test system: Triticum aestivium (TRZAW); assay: B2 post-emergence herbicidal activity; conditions: Test B2b; post-emergence (sprayed after 8 days cultivation); rate 1000 g/ha; evaluated after 13 days; scale 5=total damage to plant, 0=no damage to plant
Method: (§1) Seeds of a variety of test species were sown in standard soil in pots: Triticum aestivium (TRZAW), Avena fatua (AVEFA), Alopecurus myosuroides (ALOMY), Echinochloa crus-galli (ECHCG), Lolium perenne (LOLPE), Zea Mays (ZEAMX), Abutilon theophrasti (ABUTH), Amaranthus retroflexus (AMARE) and Setaria faberi (SETFA). After 8 days cultivation (post-emergence) under controlled conditions in a glasshouse (at 24/16° C., day/night; 14 hours light; 65% humidity), the plants were sprayed with an aqueous spray solution derived from the formulation of the technical active ingredient in acetone/water (50:50) solution containing 0.5% Tween 20 (polyoxyethelyene sorbitan monolaurate, CAS RN 9005-64-5). The test plants were then grown in a glasshouse under controlled conditions (at 24/16° C., day/night; 14 hours light; 65% humidity) and watered twice daily. After 13 days, the test was evaluated (5=total damage to plant; 0=no damage to plant).

[2] = test system: Echinochloa crus-galli (ECHCG); assay: B2 post-emergence herbicidal activity; conditions: Test B2b; post-emergence (sprayed after 8 days cultivation); rate 1000 g/ha; evaluated after 13 days; scale 5=total damage to plant, 0=no damage to plant
Method: as §1

Setaria faberi (SETFA) [3] = assay: B2 post-emergence herbicidal activity; conditions: Test B2b; post-emergence (sprayed after 8 days cultivation); rate 1000 g/ha; evaluated after 13 days; scale 5=total damage to plant, 0=no damage to plant
Method: as §1

Lolium perenne (LOLPE) [4] = assay: B2 post-emergence herbicidal activity; conditions: Test B2b; post-emergence (sprayed after 8 days cultivation); rate 1000 g/ha; evaluated after 13 days; scale 5=total damage to plant, 0=no damage to plant
Method: as §1

[5] = test system: Alopecurus myosuroides (ALOMY); assay: B2 post-emergence herbicidal activity; conditions: Test B2b; post-emergence (sprayed after 8 days cultivation); rate 1000 g/ha; evaluated after 13 days; scale 5=total damage to plant, 0=no damage to plant
Method: as §1

Avena fatua (AVEFA) [6] = assay: B2 post-emergence herbicidal activity; conditions: Test B2b; post-emergence (sprayed after 8 days cultivation); rate 1000 g/ha; evaluated after 13 days; scale 5=total damage to plant, 0=no damage to plant
Method: as §1

[7] = test system: Triticum aestivium (TRZAW); assay: B1 pre-emergence herbicidal activity; conditions: Test 1b, rate 1000 g/ha, evaluated after 13 days, scale 5=total damage to plant, 0=no damage to plant
Method: as §1, with “After” for “After 8 days”, “for one day (pre-emergence)” for “(post-emergence)”

[8] = test system: Echinochloa crus-galli (ECHCG); assay: B1 pre-emergence herbicidal activity; conditions: Test 1b, rate 1000 g/ha, evaluated after 13 days, scale 5=total damage to plant, 0=no damage to plant
Method: as §1, with “After” for “After 8 days”, “for one day (pre-emergence)” for “(post-emergence)”

Setaria faberi (SETFA) [9] = assay: B1 pre-emergence herbicidal activity; conditions: Test 1b, rate 1000 g/ha, evaluated after 13 days, scale 5=total damage to plant, 0=no damage to plant
Method: as §1, with “After” for “After 8 days”, “for one day (pre-emergence)” for “(post-emergence)”

Lolium perenne (LOLPE) [10] = assay: B1 pre-emergence herbicidal activity; conditions: Test 1b, rate 1000 g/ha, evaluated after 13 days, scale 5=total damage to plant, 0=no damage to plant
Method: as §1, with “After” for “After 8 days”, “for one day (pre-emergence)” for “(post-emergence)”

[11] = test system: Alopecurus myosuroides (ALOMY); assay: B1 pre-emergence herbicidal activity; conditions: Test 1b, rate 1000 g/ha, evaluated after 13 days, scale 5=total damage to plant, 0=no damage to plant
Method: as §1, with “After” for “After 8 days”, “for one day (pre-emergence)” for “(post-emergence)”

Avena fatua (AVEFA) [12] = assay: B1 pre-emergence herbicidal activity; conditions: Test 1b, rate 1000 g/ha, evaluated after 13 days, scale 5=total damage to plant, 0=no damage to plant
Method: as §1, with “After” for “After 8 days”, “for one day (pre-emergence)” for “(post-emergence)”

Structure (SMILES) | Control after post-emergence application, damage score: TRAZW [1] | Control after post-emergence application, damage score: ECHCG [2] | Control after post-emergence application, damage score: SETFA (Setaria faberi (SETFA) [3]) | Control after post-emergence application, damage score: LOLPE (Lolium perenne (LOLPE) [4]) | Control after post-emergence application, damage score: ALOMY [5] | Control after post-emergence application, damage score: AVEFA (Avena fatua (AVEFA) [6]) | Control after pre-emergence application, damage score: TRAZW [7] | Control after pre-emergence application, damage score: ECHCG [8] | Control after pre-emergence application, damage score: SETFA (Setaria faberi (SETFA) [9]) | Control after pre-emergence application, damage score: LOLPE (Lolium perenne (LOLPE) [10]) | Control after pre-emergence application, damage score: ALOMY [11] | Control after pre-emergence application, damage score: AVEFA (Avena fatua (AVEFA) [12])
CCCNc1cnc(-c2cncc(F)c2)nc1C(F)(F)F [Compound D13, 2-(5-fluoro-3-pyridyl)-N-propyl-4-(trifluoromethyl)pyrimidin-5-amine] | 0 | 4 | 4 | 1 | 0 | 3 | 1 | 1 | 2 | 1 | 0 | 0
CNc1cnc(-c2cncc(F)c2)nc1C(F)(F)F [Compound D6] | 1 | 5 | 5 | 3 | 0 | 2 | 0 | 4 | 4 | 1 | 0 | 1
Cc1nc(-c2cncnc2)ncc1N [Compound D3, 4-methyl-2-pyrimidin-5-yl-pyrimidin-5-amine] | 0 | 2 | 3 | 1 | 1 | 1 | 0 | 1 | 2 | 1 | 0 | 0
N#Cc1cncc(-c2ncc(N)c(C(F)(F)F)n2)c1 [Compound D10, 5-[5-amino-4-(trifluoromethyl)pyrimidin-2-yl]pyridine-3-carbonitrile] | 1 | 3 | 4 | 1 | 0 | 1 | 0 | 0 | 3 | 0 | 0 | 0
CCN(CC)c1cnc(-c2cncc(F)c2)nc1C(F)(F)F [Compound D12] | 1 | 5 | 5 | 2 | 0 | 3 | 0 | 1 | 5 | 0 | 0 | 0
CNc1cnc(-c2cncnc2)nc1C [Compound D4] | 0 | 1 | 1 | 1 | 1 | 0 | 0 | 0 | 2 | 1 | 0 | 0
CCNc1cnc(-c2cncc(N)c2)nc1C(F)(F)F [Compound D11] | 1 | 5 | 5 | 1 | 1 | 2 | 0 | 3 | 5 | 0 | 0 | 0
C=CCNc1cnc(-c2cncnc2)nc1C [Compound D7] | 1 | 2 | 4 | 0 | 0 | 1 | 0 | 2 | 4 | 1 | 0 | 1
Nc1cnc(-c2cncc(F)c2)nc1C(F)(F)F [Compound D5, 2-(5-fluoro-3-pyridyl)-4-(trifluoromethyl)pyrimidin-5-amine] | 1 | 4 | 5 | 3 | 1 | 4 | 0 | 4 | 5 | 1 | 1 | 4
Fc1cncc(-c2ncc(NCc3nccs3)c(C(F)(F)F)n2)c1 [Compound D15] | 0 | 5 | 5 | 2 | 1 | – | 0 | 4 | 5 | 0 | 0 | 1
CN(C)c1cnc(-c2cncc(F)c2)nc1C(F)(F)F [Compound D8] | 0 | 4 | 5 | 0 | 0 | 1 | 0 | 2 | 4 | 1 | 0 | 1
